Measured values from US5258395A, “Thiazole compounds as inhibitors of SRS-A” (Yamanouchi Pharmaceutical Co., Ltd., priority 1984, dated 1993).

Columns and labels:
[1] = test system: SRS-A-induced contraction of guinea pig ileum; experiment: Inhibition of SRS-A-induced contraction of guinea pig ileum; conditions: submaximal concentration of SRS-A (derived from guinea-pig lung), 20 min incubation, read-out: Anti-SRS-A GP ileum IC50
Method: (§1) Initiation of SRS-A- and LTD4 -Induced Contraction of Guinea Pig Ileum and Trachea
(§2) Method: Male Hartley guinea-pigs, weighing 500 to 700 g were killed by a blow on the head. The ileum and tracheal strips prepared according to the method of Constantine (1965) were suspended with 1.0 g tension in an organ bath containing 10 ml of Tyrode's solution equilibrated with a mixture of 95% O2 and 5% CO2 at 37° C. The tissues were equilibrated for 60 min.; during this period the Tyrode solution was replaced every 15 min. and the loading tension was adjusted to 1.0 g. The developed tension of the tissues was measured isometrically with a strain gauge transducer, and recorded on a Recticorder. Both the contractile response of the ileum to submaximal concentration of SRS-A (derived from guinea-pig lung) and the tracheal response to 10^-8 M LTD4 were measured in the absence and then the presence of various concentrations of test compounds. The incubation time of the compounds was 20 min.

[2] = test system: SRS-A-mediated anaphylactic asthma; experiment: Inhibition of SRS-A-mediated anaphylactic asthma in conscious guinea-pigs; format: in vivo, guinea pig; conditions: for Time to onset of cough / Mortality: 30 min before antigen challenge; for Time to onset of cough: N=8
Method: Inhibition of SRS-A-Mediated Anaphylactic Asthma in Conscious Guinea-Pigs
Method: Male Harley guinea-pigs, weighing 370 to 410 g were passively sensitized by intravenously injecting 1 ml/kg of rabbit […] anti-bovine serum albumin serum (PHA titer: 20480). Twenty-four hours after the sensitization, indomethacine (2 mg/kg), mepyramine (2 mg/kg) and propranolol (0.3 mg/kg) were injected into the saphenous vein 20, 5 and 5 min., respectively, prior to the antigen challenge. Then, animals were placed in an 11 liter chamber connected to a glass nebulizer, and 1% solution of bovin serum albumin was sprayed into the chamber for 30 seconds. The animals were exposed to the antigen aerosol for 2 min. and observed for 15 min. after challenge. The time from the start of inhalation to the onset of cough and the mortality were recorded. Test compounds were orally administered 30 min. before antigen challenge.
^a) Animals were pretreated with mepyramine (2 mg/kg i.v.),
propranolol (0.3 mg/kg i.v.) and indomethacine (2 mg/kg i.v.) 5, 5 and 20
min., respectively, prior to antigen challenge.
^b) Test compound was orally administered 30 min. before antigen

rats = experiment: Toxicity, oral administration to rats; format: in vivo; conditions: orally
[3] = test system: LTD4-induced contraction of guinea pig trachea; experiment: Inhibition of LTD4-induced contraction of guinea pig trachea; conditions: 10^-8 M LTD4, 20 min incubation, read-out: Anti-LTD4 GP trachea IC50
Method: as §1, §2

mice = experiment: Toxicity, oral administration to mice; format: in vivo; conditions: orally
[4] = cited from earlier work
SRS-A = conditions: cited from earlier work

## CCCc1c(OCCCSc2nnc(N)s2)ccc(C(C)=O)c1O [Example 2, 4-[3-[(5-amino-1,3,4-thiadizol-2-yl)thio]propoxy]-2-hydroxy-3-propylacetophenone]
[1]
  IC50: 180 nM

## CCCc1c(OCCCSc2nnc(S)s2)ccc(C(C)=O)c1O [Example 7, 2-Hydroxy-4-[[3-(5-mercapto-1,3,4-thiadiazol-2-yl)thio]propoxy]-3-propylacetophenone]
[1]
  IC50: 110 nM

## CCCc1c(OCCCSc2nnc(SCC(=O)O)s2)ccc(C(C)=O)c1O [Example 21, [[5-[[3-(4-acetyl-3-hydroxy-2-propylphenoxy)propyl]thio]-1,3,4-thiadiazol-2-yl]thio]acetic acid]
[1]
  IC50: 60 nM
[2]; 3 mg/kg p.o.
  Inhibition of SRS-A-mediated anaphylactic asthma (in words): tended to inhibit the SRS-A-mediated anaphylactic asthma in conscious guinea-pigs, but this effect was not significant
[2]; 3 mg/kg p.o., control 293 ± 22
  Time to onset of cough: 377 ± 51 s
[2]; 3 mg/kg p.o., control 6/8
  Mortality: 5/8
[2]; 10 mg/kg p.o. or higher
  Inhibition of SRS-A-mediated anaphylactic asthma (in words): significantly inhibited the SRS-A-mediated anaphylactic asthma
[2]; 10 mg/kg p.o., control 281 ± 19, * significant vs control
  Time to onset of cough: 397 ± 42 s
[2]; 10 mg/kg p.o., control 7/8, * significant vs control
  Mortality: 2/8
[2]; 30 mg/kg p.o., control 281 ± 11, ** p < 0.01 vs control
  Time to onset of cough: 457 ± 42 s
[2]; 30 mg/kg p.o., control 7/8, * significant vs control
  Mortality: 2/8
rats
  minimum fatal dose: more than 1000 mg/kg
[3]
  IC50: 130 nM
mice
  minimum fatal dose: more than 1000 mg/kg

## CCCc1c(OCCCCSc2nnc(SCC(=O)O)s2)ccc(C(C)=O)c1O [Example 23, [[5-[[4-(4-acetyl-3-hydroxy-2-propylphenoxy)butyl]thio]-1,3,4-thiadiazol-2-yl]thio]acetic acid]
[1]
  IC50: 150 nM

## CCCc1c(OCCCCCSc2nnc(SCC(=O)O)s2)ccc(C(C)=O)c1O [Example 24, [[5-[[5-(4-Acetyl-3-hydroxy-2-propylphenoxy)pentyl]thio]-1,3,4-thiadiazol-2-yl]thio]acetic acid]
[1]
  IC50: 190 nM

## CCCc1c(OCCCSc2nnc(SCCC(=O)O)s2)ccc(C(C)=O)c1O [Example 26]
[1]
  IC50: 120 nM

## CCCc1c(OCCCSc2snc(O)c2C(=O)O)ccc(C(C)=O)c1O [Example 27, 5-[[3-(4-acetyl-3-hydroxy-2-propylphenoxy)propyl]thio]-3-hydroxy-4-isothiazol carboxylic acid]
[1]
  IC50: 190 nM

## CCCc1c(OCCCSc2nnc(NC(=O)CC(=O)O)s2)ccc(C(C)=O)c1O [Example 33, 3-[[5-[[3-(4-acetyl-3-hydroxy-2-propylphenoxy)propyl]thio]-1,3,4-thiadiazol-2-yl]amino]-3-oxopropionic acid]
[1]
  IC50: 91 nM

## CCCc1c(OCCCSc2nnc(NC(=O)C(=O)O)s2)ccc(C(C)=O)c1O [Example 36, N-[5-[[3-(4-Acetyl-3-hydroxy-2-propylphenoxy)propyl]thio]-1,3,4-thiadizol-2-yl]oxamic acid]
[1]
  IC50: 140 nM

## CCCc1c(OCCCSc2cc(C(=O)O)nc(SC)n2)ccc(C(C)=O)c1O [Example 37, 6-[[3-(4-Acetyl-3-hydroxy-2-propylphenoxy)propyl]thio]-2-methylthio-4-pyrimidinecarboxylic acid]
[1]
  IC50: 52 nM

## CCCc1c(OCCCSc2nnc(SCCCC(=O)O)s2)ccc(C(C)=O)c1O [Example 38, 4-[[5-[[3-(4-Acetyl-3-hydroxy-2-propylphenoxy)propyl]thio]-1,3,4-thiadiazol-2-yl]thio]butyric acid]
[1]
  IC50: 38 nM
[3]
  IC50: 230 nM

## CCCc1c(OCCCSc2nnc(SCCCCC(=O)O)s2)ccc(C(C)=O)c1O [Example 41, 5-[[5-[[3-(4-Acetyl-3-hydroxy-2-propylphenoxy)propyl]thio]-1,3,4-thiadiazol-2-yl]thio]valeric acid]
[1]
  IC50: 64 nM

## CCCc1c(OCCCSc2nnc(SCCCCCC(=O)O)s2)ccc(C(C)=O)c1O [Example 42, 6-[[5-[[3-(4-Acetyl-3-hydroxy-2-propylphenoxy)propyl]thio]-1,3,4-thiadizol-2-yl]thio]hexanoic acid]
[1]
  IC50: 130 nM

## CCCc1c(OCCCSc2nnc(SC(C)CCC(=O)O)s2)ccc(C(C)=O)c1O (stereo not shown) [Example 44, 4-[[5-[[3-(4-Acetyl-3-hydroxy-2-propylphenoxy)propyl]thio]-1,3,4-thiadizol-2-yl]thio]valeric acid]
[1]
  IC50: 130 nM

## CCCc1c(OCCCSc2nnc(SCC(=O)N(C)O)s2)ccc(C(C)=O)c1O [Example 51, 2-[[5-[[3-(4-acetyl-3-hydroxy-2-propylphenoxy)propyl]thio]-1,3,4-thiadiazol-2-yl]thio]-N-hydroxy-N-methylacetamide]
[1]
  IC50: 160 nM
[3]
  IC50: 420 nM

## CCCc1c(OCC(O)COc2ccc3c(=O)cc(C(=O)O)oc3c2CCC)ccc(C(C)=O)c1O (stereo not shown) [FPL 55712]
[4]; in vivo
  biological half life: very short
[4]; oral route
  absorption by oral route: very poor
SRS-A
  anti-SRS-A activity in isolated tissues: potent anti-SRS-A activity in isolated tissues
